Data on 20 compounds can be found in US20240270695A1, “COMPOUNDS, COMPOSITIONS AND METHODS OF TREATING DISORDERS” (Chengdu Anticancer Bioscience LTD, priority 2021, published 2024).

This test concerns RPE-Neo or RPE-MYC or RPE-MYC expressing an EGFP-Histone 2B fusion protein. Briefly: Phenotypic screening assay (arrest in mitosis, change in DNA content, cell death; GE IN-Cell Analyzer 2000). Format: cell-based. As to conditions: Homo sapiens, compounds 20 nM to 20 μM, 24, 48 or 72 hours.
Where [1] appears, read: read-out: Min. Effective conc. for Polyploidy (≥10%).
Where [2] appears, read: min. effective conc., read-out: Cell Death (>30%).
[3] abbreviates: min. effective conc., read-out: Mitotic Arrest (≥10%).

Where two headings read alike, the source gives them in different places.

As to `COC(=O)C1=C(O)c2ccccc2N(Cc2cccc(C)c2C)C(=O)C1` [Example 17, Methyl 1-(2,3-dimethylbenzyl)-5-hydroxy-2-oxo-2,3-dihydro-1H-benzo[b]azepine-4-carboxylate], the minimal effective concentration fell in the range of 1 to 10 µM under setting [1], 1 to 10 µM under setting [2] and 1 to 10 µM under setting [3].
As to `COC(=O)C1=C(O)c2ccccc2N(Cc2ccc(F)cc2)C(=O)C1` [Example 10, Methyl 1-(4-fluorobenzyl)-5-hydroxy-2-oxo-2,3-dihydro-1H-benzo[b]azepine-4-carboxylate], the minimal effective concentration by setting is: under setting [1], 30 to 1000 µM; under setting [3], 30 to 1000 µM.
As to `CC(=O)C1=C(O)c2ccccc2N(Cc2ccc(C)c(F)c2)C(=O)C1` [Example 56, 4-acetyl-1-(3-fluoro-4-methylbenzyl)-5-hydroxy-1,3-dihydro-2H-benzo[b]azepin-2-one], the minimal effective concentration by setting is: under setting [1], 1 to 10 µM; under setting [3], 1 to 10 µM.
For the compound `COC(=O)C1=C(O)c2ccccc2N(Cc2ccc(OC(F)F)cc2)C(=O)C1` [Example 33, Methyl 1-(4-(difluoromethoxy)benzyl)-5-hydroxy-2-oxo-2,3-dihydro-1H-benzo[b]azepine-4-carboxylate], the minimal effective concentration is, setting by setting: under setting [1], 1 to 10 µM; under setting [2], 1 to 10 µM; under setting [3], 1 to 10 µM.
Turning to `COC(=O)C1=C(O)c2cc(F)ccc2N(Cc2ccc(C)c(F)c2)C(=O)C1` [Example 52, Methyl 7-fluoro-1-(3-fluoro-4-methylbenzyl)-5-hydroxy-2-oxo-2,3-dihydro-1H-benzo[b]azepine-4-carboxylate], the minimal effective concentration reads like this: under setting [1], 0.001 to 1 µM; under setting [2], 0.001 to 1 µM; under setting [3], 0.001 to 1 µM.
On to `COC(=O)C1=C(O)c2ccccc2N(Cc2ccc(C)c(Cl)c2)C(=O)C1` [Example 45, Methyl 1-(3-chloro-4-methylbenzyl)-5-hydroxy-2-oxo-2,3-dihydro-1H-benzo[b]azepine-4-carboxylate], for which the minimal effective concentration by setting is: under setting [1], 1 to 10 µM; under setting [2], 1 to 10 µM; under setting [3], 1 to 10 µM.
In the case of `COC(=O)C1=C(O)c2ccccc2N(Cc2cc(F)c(F)c(F)c2)C(=O)C1` [Example 28, Methyl 5-hydroxy-2-oxo-1-(3,4,5-trifluorobenzyl)-2,3-dihydro-1H-benzo[b]azepine-4-carboxylate], the minimal effective concentration under setting [2] lay within 30 to 1000 µM.
In the case of `COC(=O)C1=C(O)c2ccccc2N(Cc2cc(F)ccc2F)C(=O)C1` [Example 19, Methyl 1-(2,5-difluorobenzyl)-5-hydroxy-2-oxo-2,3-dihydro-1H-benzo[b]azepine-4-carboxylate], the minimal effective concentration fell in the range of 30 to 1000 µM under setting [1], 30 to 1000 µM under setting [2] and 30 to 1000 µM under setting [3].
Turning to `COC(=O)C1=C(O)c2ccccc2N(Cc2ccc(F)cc2F)C(=O)C1` [Example 18, Methyl 1-(2,4-difluorobenzyl)-5-hydroxy-2-oxo-2,3-dihydro-1H-benzo[b]azepine-4-carboxylate], the minimal effective concentration by setting is: under setting [1], 30 to 1000 µM; under setting [2], 30 to 1000 µM; under setting [3], 30 to 1000 µM.
In the case of `CCc1ccc(CN2C(=O)CC(C(=O)OC)=C(O)c3ccccc32)cc1` [Example 37, Methyl 1-(4-ethylbenzyl)-5-hydroxy-2-oxo-2,3-dihydro-1H-benzo[b]azepine-4-carboxylate], the minimal effective concentration was 0.001 to 1 µM under setting [1], 0.001 to 1 µM under setting [2] and 0.001 to 1 µM under setting [3].
As to `COC(=O)C1=C(O)c2ccccc2N(Cc2ccc3ccccc3c2)C(=O)C1` [Example 14, Methyl 5-hydroxy-1-(naphthalen-2-ylmethyl)-2-oxo-2,3-dihydro-1H-benzo[b]azepine-4-carboxylate], the minimal effective concentration is, setting by setting: under setting [1], 1 to 10 µM; under setting [2], 1 to 10 µM; under setting [3], 1 to 10 µM.
As for `CNC(=S)C1=C(O)c2ccccc2N(Cc2ccc(C)c(F)c2)C(=O)C1` [Example 67, 1-(3-fluoro-4-methylbenzyl)-5-hydroxy-N-methyl-2-oxo-2,3-dihydro-1H-benzo[b]azepine-4-carbothioamide], the minimal effective concentration lay in the range of 10 to 30 µM under setting [1], 10 to 30 µM under setting [2] and 10 to 30 µM under setting [3].
Turning to `COC(=O)C1=C(O)c2ccccc2N(Cc2ccccc2)C(=O)C1` [Example 1, Methyl 1-benzyl-5-hydroxy-2-oxo-2,3-dihydro-1H-benzo[b]azepine-4-carboxylate], the minimal effective concentration is, setting by setting: under setting [1], 30 to 1000 µM; under setting [3], 30 to 1000 µM.
For `CCNC(=O)C1=C(O)c2ccccc2N(Cc2ccc(C)c(F)c2)C(=O)C1` [Example 64, N-ethyl-1-(3-fluoro-4-methylbenzyl)-5-hydroxy-2-oxo-2,3-dihydro-1H-benzo[b]azepine-4-carboxamide], the minimal effective concentration runs as follows: under setting [1], 1 to 10 µM; under setting [2], 1 to 10 µM; under setting [3], 1 to 10 µM.
Turning to `COC(=O)C1=C(O)c2ccccc2N(Cc2cc(F)cc(F)c2)C(=O)C1` [Example 20, Methyl 1-(3,5-difluorobenzyl)-5-hydroxy-2-oxo-2,3-dihydro-1H-benzo[b]azepine-4-carboxylate], the minimal effective concentration runs as follows: under setting [1], 30 to 1000 µM; under setting [2], 30 to 1000 µM; under setting [3], 30 to 1000 µM.
Take `COC(=O)C1=C(O)c2ccccc2N(Cc2ccc(C)c(Br)c2)C(=O)C1` [Example 46, Methyl 1-(3-bromo-4-methylbenzyl)-5-hydroxy-2-oxo-2,3-dihydro-1H-benzo[b]azepine-4-carboxylate]: the minimal effective concentration under setting [1] was 1 to 10 µM, the minimal effective concentration under setting [2] lay in the range of 1 to 10 µM and the minimal effective concentration under setting [3] fell in the range of 1 to 10 µM.
For the compound `Cc1ccc(CN2C(=O)CC(C(=O)C3CCCO3)=C(O)c3ccccc32)cc1F` (centres unmarked) [Example 62, 1-(3-fluoro-4-methylbenzyl)-5-hydroxy-4-(tetrahydrofuran-2-carbonyl)-1,3-dihydro-2H-benzo[b]azepin-2-one], the minimal effective concentration is, setting by setting: under setting [1], 1 to 10 µM; under setting [2], 1 to 10 µM; under setting [3], 1 to 10 µM.
Turning to `COC(=O)C1=C(O)c2ccccc2N(Cc2cccc(F)c2F)C(=O)C1` [Example 22, Methyl 1-(2,3-difluorobenzyl)-5-hydroxy-2-oxo-2,3-dihydro-1H-benzo[b]azepine-4-carboxylate], the minimal effective concentration under setting [2] lay in the range of 30 to 1000 µM.
For the compound `COC(=O)C1=C(O)c2ccccc2N(Cc2ccc(C(F)(F)F)cc2)C(=O)C1` [Example 40, Methyl 5-hydroxy-2-oxo-1-(4-(trifluoromethyl)benzyl)-2,3-dihydro-1H-benzo[b]azepine-4-carboxylate], the minimal effective concentration under setting [1] lay in the range of 1 to 10 µM, the minimal effective concentration under setting [2] was in the range of 1 to 10 µM and the minimal effective concentration under setting [3] lay in the range of 1 to 10 µM.
In the case of `Cc1ccc(CN2C(=O)CC(C(=O)NC3CCCCC3)=C(O)c3ccccc32)cc1F` [Example 66, N-cyclohexyl-1-(3-fluoro-4-methylbenzyl)-5-hydroxy-2-oxo-2,3-dihydro-1H-benzo[b]azepine-4-carboxamide], the minimal effective concentration fell in the range of 10 to 30 µM under setting [1], 10 to 30 µM under setting [2] and 10 to 30 µM under setting [3].
